Experimental findings from publication PMC9692725, “Glutathione S-Transferase May Contribute to the Detoxification of (S)-(−)-Palasonin in Plutella xylostella (L.) via Direct Metabolism” (Insects, 2022) are described below.

In one assay the target is T1, GSTe4 (Plutella xylostella, UniProt X5D048).
T1 construct: recombinant, pET-30a(+), E. coli BL21(DE3), Ni-NTA purified, about 25 kDa expected
T1 sequence (X5D048 1-220): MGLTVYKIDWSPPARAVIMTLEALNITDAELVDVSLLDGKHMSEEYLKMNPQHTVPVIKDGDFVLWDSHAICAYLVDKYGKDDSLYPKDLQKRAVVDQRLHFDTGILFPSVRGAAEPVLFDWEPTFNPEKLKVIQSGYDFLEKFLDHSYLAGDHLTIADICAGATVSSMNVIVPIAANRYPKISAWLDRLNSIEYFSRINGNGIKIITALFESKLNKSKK
The assay can be described thus: CDNB-GSH conjugation, absorbance at […] nm. It is filed as biochemical. The settings on record: 1 mM GSH, 100 mM phosphate buffer, CDNB 0.05-1.6 mM.

The subject of another assay is T2, GSTd5.
T2 construct: recombinant, pET-30a(+), E. coli BL21(DE3), Ni-NTA purified, about 25 kDa expected
Kind of assay: CDNB-GSH conjugation, absorbance at […] nm. It is filed as biochemical, Plutella xylostella. The settings on record: 1 mM GSH, 100 mM phosphate buffer, CDNB 0.05-1.6 mM.

A further assay concerns the target T3, GSTd3 (Plutella xylostella, UniProt D7URW9).
T3 construct: gene PxGSTd; recombinant, pET-30a(+), E. coli BL21(DE3), Ni-NTA purified, about 25 kDa expected
T3 sequence (D7URW9 1-215): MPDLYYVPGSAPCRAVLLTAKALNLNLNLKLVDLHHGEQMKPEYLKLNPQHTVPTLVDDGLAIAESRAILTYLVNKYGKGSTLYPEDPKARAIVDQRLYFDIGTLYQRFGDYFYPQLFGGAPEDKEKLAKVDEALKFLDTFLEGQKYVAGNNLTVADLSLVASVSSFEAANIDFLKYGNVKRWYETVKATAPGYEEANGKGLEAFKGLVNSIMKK
Kind of assay: CDNB-GSH conjugation, absorbance at […] nm. The note with it: 1 mM GSH, 100 mM phosphate buffer, CDNB 0.05-1.6 mM. It is filed as biochemical.

In the next assay the target is T4, GSTd4 (Plutella xylostella, UniProt X5CCB0).
T4 construct: recombinant, pET-30a(+), E. coli BL21(DE3), Ni-NTA purified, about 25 kDa expected
T4 sequence (X5CCB0 1-219): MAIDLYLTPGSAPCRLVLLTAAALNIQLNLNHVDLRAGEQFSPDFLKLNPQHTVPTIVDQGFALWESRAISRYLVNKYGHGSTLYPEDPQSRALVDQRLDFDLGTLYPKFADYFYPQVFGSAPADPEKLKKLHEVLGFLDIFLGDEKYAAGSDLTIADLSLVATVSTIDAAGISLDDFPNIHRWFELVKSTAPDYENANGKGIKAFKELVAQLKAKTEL
The assay can be described thus: CDNB-GSH conjugation, absorbance at […] nm. It is filed as biochemical. The note with it: 1 mM GSH, 100 mM phosphate buffer, CDNB 0.05-1.6 mM.

Assay [1] deals with T5, GSTs1 (Plutella xylostella, UniProt Q6F443).
T5 construct: recombinant, pET-30a(+), E. coli BL21(DE3), Ni-NTA purified, about 25 kDa expected
T5 sequence (Q6F443 1-204): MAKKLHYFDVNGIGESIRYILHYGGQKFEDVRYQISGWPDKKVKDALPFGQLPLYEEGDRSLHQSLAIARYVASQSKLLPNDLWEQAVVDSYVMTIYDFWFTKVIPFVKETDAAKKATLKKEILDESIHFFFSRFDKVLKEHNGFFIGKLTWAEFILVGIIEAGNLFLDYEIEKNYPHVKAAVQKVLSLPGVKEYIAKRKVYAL
Kind of assay: CDNB-GSH conjugation, absorbance at […] nm. It is filed as biochemical. The settings on record: 1 mM GSH, 100 mM phosphate buffer, CDNB 0.05-1.6 mM.

The target of assay [2] is T6, GSTd1 (Plutella xylostella, UniProt A0A8S4F7H5).
T6 construct: gene PLXY2_LOCUS7699; recombinant, pET-30a(+), E. coli BL21(DE3), Ni-NTA purified, about 25 kDa expected
T6 sequence (A0A8S4F7H5 1-243 limits assumed): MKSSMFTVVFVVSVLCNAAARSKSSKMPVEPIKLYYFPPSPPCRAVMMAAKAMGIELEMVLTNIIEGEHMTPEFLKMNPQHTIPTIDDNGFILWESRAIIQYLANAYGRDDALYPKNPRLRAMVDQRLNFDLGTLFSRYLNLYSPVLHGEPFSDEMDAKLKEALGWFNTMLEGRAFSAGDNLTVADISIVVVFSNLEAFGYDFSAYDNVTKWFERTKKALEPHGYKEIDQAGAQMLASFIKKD
The assay can be described thus: CDNB-GSH conjugation, absorbance at […] nm. The settings on record: 1 mM GSH, 100 mM phosphate buffer, CDNB 0.05-1.6 mM. Type of assay: biochemical.

The next assay has as its target T7, GSTe5 (Plutella xylostella, UniProt X5CJR9).
T7 construct: recombinant, pET-30a(+), E. coli BL21(DE3), Ni-NTA purified, about 25 kDa expected
T7 sequence (X5CJR9 1-232): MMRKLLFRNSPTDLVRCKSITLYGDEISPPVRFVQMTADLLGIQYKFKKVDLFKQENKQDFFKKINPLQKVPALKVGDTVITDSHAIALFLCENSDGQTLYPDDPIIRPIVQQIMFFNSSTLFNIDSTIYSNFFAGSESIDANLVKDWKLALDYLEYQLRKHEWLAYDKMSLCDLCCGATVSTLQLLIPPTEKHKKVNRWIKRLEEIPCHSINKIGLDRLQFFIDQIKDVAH
The assay can be described thus: CDNB-GSH conjugation, absorbance at […] nm. It is filed as biochemical. The note with it: 1 mM GSH, 100 mM phosphate buffer, CDNB 0.05-1.6 mM.

The target of assay [3] is T8, GSTd2 (Plutella xylostella, UniProt X5CJR6).
T8 construct: recombinant, pET-30a(+), E. coli BL21(DE3), Ni-NTA purified, about 25 kDa expected
T8 sequence (X5CJR6 1-247): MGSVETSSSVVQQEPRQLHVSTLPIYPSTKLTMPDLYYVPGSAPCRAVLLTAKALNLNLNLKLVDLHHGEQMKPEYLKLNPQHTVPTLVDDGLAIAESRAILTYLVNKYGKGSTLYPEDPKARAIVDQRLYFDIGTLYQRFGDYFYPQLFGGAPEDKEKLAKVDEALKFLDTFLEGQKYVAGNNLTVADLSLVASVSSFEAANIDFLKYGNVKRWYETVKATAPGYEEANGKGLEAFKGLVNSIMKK
The assay can be described thus: CDNB-GSH conjugation, absorbance at […] nm. It is filed as biochemical. The settings on record: 1 mM GSH, 100 mM phosphate buffer, CDNB 0.05-1.6 mM.

Assay [4] addresses T9, GSTs2 (Plutella xylostella, UniProt Q6F436).
T9 construct: recombinant, pET-30a(+), E. coli BL21(DE3), Ni-NTA purified, about 25 kDa expected
Kind of assay: CDNB-GSH conjugation, absorbance at […] nm. Type of assay: biochemical. The note with it: 1 mM GSH, 100 mM phosphate buffer, CDNB 0.05-1.6 mM.

Assay [5] deals with T6, GSTd1. Kind of assay: inhibition of CDNB-GSH conjugation, absorbance at […] nm. It is filed as biochemical. The note with it: CDNB and GSH substrates, PBS, 10 min preincubation at 25 °C; competitive (authors' inference).
Assay [6] concerns the target T9, GSTs2. Described as above. It is filed as biochemical. The note with it: CDNB and GSH substrates, PBS, 10 min preincubation at 25 °C; competitive (authors' inference).
In assay [7] the target is T5, GSTs1. The description is as above. Type of assay: biochemical. The settings on record: CDNB and GSH substrates, PBS, 10 min preincubation at 25 °C; competitive (authors' inference).
Assay [8] addresses T8, GSTd2. Described as above. Type of assay: biochemical. The note with it: CDNB and GSH substrates, PBS, 10 min preincubation at 25 °C; competitive (authors' inference).

T9 sequence (Q6F436 1-204): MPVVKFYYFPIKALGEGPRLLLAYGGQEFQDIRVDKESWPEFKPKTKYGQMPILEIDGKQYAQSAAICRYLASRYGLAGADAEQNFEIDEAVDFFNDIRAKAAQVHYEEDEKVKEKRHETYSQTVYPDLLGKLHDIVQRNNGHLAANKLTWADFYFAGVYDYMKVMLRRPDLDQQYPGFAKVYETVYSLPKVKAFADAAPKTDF

In general, Km refers to the substrate concentration at which the rate is half of its maximum. As to `O=[N+]([O-])c1ccc(Cl)c([N+](=O)[O-])c1` [1-chloro-2,4-dinitrobenzene], the Km at GSTe4 was 413 µM; in the assay on GSTd5, 546 µM; on GSTd3 it was 1010 µM; on GSTd4, 1120 µM; at GSTs1 [1], 684 µM; on GSTd1 [2], 691 µM. For the same molecule, the Km on GSTe5 was found to be 705 µM; at GSTd2 [3] it was 682 µM; at GSTs2 [4], 469 µM.
Consider `CC12C(=O)OC(=O)C1C1CCC2O1` [(S)-(−)-palasonin], for which the “relative activity at 1 mM” value on GSTd1 [5] is recorded as 0.35 fraction of control; on GSTs2 [6], 0.51 fraction of control; at GSTs1 [7], 0.26 fraction of control; on GSTd2 [8], 0.55 fraction of control.
